Measured values as given in US10487093B2, “Heterocyclic compounds, in particular 2-oxo-4,4,5,5,6,6,7,7-octahydrobenzoxazole derivatives, and their use as antibacterial compounds” (priority 2016, dated 2019).
≈ marks a conversion by molar mass, not a printed value. Where two headings read alike, the source gives them in different places.

Assays:
[1] = system: Escherichia coli ATCC 25922; assay: MIC, broth microdilution (CLSI) versus planktonic bacteria; type: cell-based; details: Escherichia coli ATCC 25922, 16-20 h, mode of three independent experiments; for MIC: ATCC25922, read-out: MIC, Ec ATCC 25922
[2] = system: Staphylococcus aureus ATCC 29213; assay: as above; type: cell-based; details: Staphylococcus aureus ATCC 29213, 16-20 h, mode of three independent experiments; for MIC: ATCC29213, read-out: MIC, Sa ATCC 29213
[3] = system: Enterobacter cloacae NCTC 13406; assay: as above; type: cell-based; details: Enterobacter cloacae NCTC 13406, 16-20 h, mode of three independent experiments; for MIC: NCTC13406, read-out: MIC, Ecl NCTC 13406
E. coli MG1655 = assay: as above; type: cell-based, Escherichia coli; details: for MIC: Escherichia coli, MG1655, read-out: MIC, Ec MG1655 WT
[4] = system: Pseudomonas aeruginosa ATCC 27853; assay: as above; type: cell-based; details: Pseudomonas aeruginosa ATCC 27853, 16-20 h, mode of three independent experiments; for MIC: ATCC27853, read-out: MIC, Pa ATCC 27853
E. coli MG1655 D87G = type: cell-based, Escherichia coli
[5] = system: Acinetobacter baumannii ATCC 19606; assay: MIC, broth microdilution (CLSI) versus planktonic bacteria; type: cell-based; details: Acinetobacter baumannii ATCC 19606, 16-20 h, mode of three independent experiments; for MIC: ATCC19606, read-out: MIC, Ab ATCC 19606
[6] = system: Streptococcus pneumoniae ATCC 49619; assay: as above; type: cell-based; details: Streptococcus pneumoniae ATCC 49619, 16-20 h, mode of three independent experiments; for MIC: ATCC49619, read-out: MIC, Sp ATCC 49619
E. coli MG1655 S83L = type: cell-based, Escherichia coli
[7] = system: Haemophilus influenzae ATCC 49247; assay: MIC, broth microdilution (CLSI) versus planktonic bacteria; type: cell-based; details: Haemophilus influenzae ATCC 49247, 16-20 h, mode of three independent experiments; for MIC: ATCC49247, read-out: MIC, Hi ATCC 49247
[8] = system: human hepatic cell line (HepG2 ATCC HB-8065); assay: Human cell viability assay (CellTiter-Glo); details: for IC50: Homo sapiens, HepG2, 24 h, read-out: IC50 (μg/mL) HepG2
[9] = system: Acinetobacter baumannii NCTC 13420; assay: MIC, broth microdilution (CLSI) versus planktonic bacteria; type: cell-based; details: Acinetobacter baumannii NCTC 13420, 16-20 h, mode of three independent experiments; for MIC: NCTC13420, read-out: MIC, Ab NCTC 13420
E. coli ATCC BAA-2452 = assay: as above; type: cell-based; details: Escherichia coli ATCC BAA-2452, 16-20 h, mode of three independent experiments; for MIC: read-out: MIC, Ec ATCC BAA 2452
E. coli NCTC 13476 = assay: as above; type: cell-based; details: Escherichia coli NCTC 13476, 16-20 h, mode of three independent experiments; for MIC: NCTC13476, read-out: MIC, Ec NCTC 13476
[10] = compared to the isogenic parent strain E. coli MG1655, D87G mutation on DNA gyrase subunit GyrA
[11] = compared to the isogenic parent strain E. coli MG1655, S83L mutation on DNA gyrase subunit GyrA

## 1-[(2S)-3-{[(3aR,6R,7aR)-2-oxo-3-{3-oxo-2H,3H,4H-pyrido[3,2-b][1,4]oxazin-6-yl}-octahydro-1,3-benzoxazol-6-yl]amino}-2-hydroxypropyl]-7-fluoro-1,2-dihydroquinoxalin-2-one & 1-[(2R)-3-{[(3aR,6R,7aR)-2-oxo-3-{3-oxo-2H,3H,4H-pyrido[3,2-b][1,4]oxazin-6-yl}-octahydro-1,3-benzoxazol-6-yl]amino}-2-hydroxypropyl]-7-fluoro-1,2-dihydroquinoxalin-2-one [Compound 94]
[1]
  MIC, Ec ATCC 25922: A (an MIC (in μg/mL) of less or equal to 1 is assigned the letter A)
[2]
  MIC, Sa ATCC 29213: A (an MIC (in μg/mL) of less or equal to 1 is assigned the letter A)
[3]
  MIC, Ecl NCTC 13406: B (a MIC of from 1 to 10 is assigned the letter B)
E. coli MG1655; Escherichia coli MG1655 WT, 16-20 h, mode of three independent experiments
  MIC, Ec MG1655 WT: A (an MIC (in μg/mL) of less or equal to 1 is assigned the letter A)
[4]
  MIC, Pa ATCC 27853: B (a MIC of from 1 to 10 is assigned the letter B)
E. coli MG1655 D87G
  Fold increase in MIC, E. coli MG1655 D87G: 2 fold
[5]
  MIC, Ab ATCC 19606: B (a MIC of from 1 to 10 is assigned the letter B)
[6]
  MIC, Sp ATCC 49619: A (an MIC (in μg/mL) of less or equal to 1 is assigned the letter A)
E. coli MG1655 S83L
  Fold increase in MIC, E. coli MG1655 S83L: 1 fold
[7]
  MIC, Hi ATCC 49247: A (an MIC (in μg/mL) of less or equal to 1 is assigned the letter A)
[8]; HepG2 cell viability, 24 h, CellTiter-Glo
  IC50 (μg/mL) HepG2: A (an IC50 of over 100 is assigned the letter A)
[9]
  MIC, Ab NCTC 13420: B (a MIC of from 1 to 10 is assigned the letter B)
E. coli ATCC BAA-2452
  MIC, Ec ATCC BAA 2452: A (an MIC (in μg/mL) of less or equal to 1 is assigned the letter A)
E. coli NCTC 13476
  MIC, Ec NCTC 13476: A (an MIC (in μg/mL) of less or equal to 1 is assigned the letter A)

## N#Cc1cnc2ccc(=O)n(CCN[C@H]3CC[C@H]4[C@H](C3)OC(=O)N4c3ccc4c(n3)NC(=O)CO4)c2c1 [Compound 55, 5-(2-{[(3aS,6S,7aS)-2-oxo-3-{3-oxo-2H,3H,4H-pyrido[3,2-b][1,4]oxazin-6-yl}-octahydro-1,3-benzoxazol-6-yl]amino}ethyl)-6-oxo-5,6-dihydro-1,5-naphthyridine-3-carbonitrile]
[1]
  MIC: < 1 µg/mL
[2]
  MIC: < 1 µg/mL
[3]
  MIC: < 1 µg/mL
E. coli MG1655
  MIC: < 1 µg/mL
E. coli MG1655 D87G; [10]
  Fold increase in MIC, E. coli MG1655 D87G: 1 fold
[5]
  MIC: < 1 µg/mL
[6]
  MIC: < 1 µg/mL
E. coli MG1655 S83L; [11]
  Fold increase in MIC, E. coli MG1655 S83L: 1 fold
[7]
  MIC: < 1 µg/mL
[8]
  IC50: > 100 µg/mL
[9]
  MIC: < 1 µg/mL
E. coli ATCC BAA-2452
  MIC: < 1 µg/mL
E. coli NCTC 13476
  MIC: < 1 µg/mL

## N#Cc1ccc2ccc(=O)n(CCN[C@H]3CC[C@H]4[C@H](C3)OC(=O)N4c3ccc4c(n3)NC(=O)CO4)c2c1 [Compound 56, 1-(2-{[(3aS,6S,7aS)-2-oxo-3-{3-oxo-2H,3H,4H-pyrido[3,2-b][1,4]oxazin-6-yl}-octahydro-1,3-benzoxazol-6-yl]amino}ethyl)-2-oxo-1,2-dihydroquinoline-7-carbonitrile]
[1]
  MIC: < 1 µg/mL
[2]
  MIC: < 1 µg/mL
[3]
  MIC: < 1 µg/mL
E. coli MG1655
  MIC: < 1 µg/mL
E. coli MG1655 D87G; [10]
  Fold increase in MIC, E. coli MG1655 D87G: 2 fold
[5]
  MIC: < 1 µg/mL
[6]
  MIC: < 1 µg/mL
E. coli MG1655 S83L; [11]
  Fold increase in MIC, E. coli MG1655 S83L: 1 fold
[7]
  MIC: < 1 µg/mL
[8]
  IC50: 10 to 100 µg/mL (≈ 20 to 200 µM)
[9]
  MIC: < 1 µg/mL
E. coli ATCC BAA-2452
  MIC: < 1 µg/mL
E. coli NCTC 13476
  MIC: < 1 µg/mL

## O=C1COc2ccc(N3C(=O)O[C@H]4C[C@@H](NCCn5c(=O)cnc6ccc(F)cc65)CC[C@@H]43)nc2N1 [Compound 84, 1-(2-{[(3aS,6S,7aS)-2-oxo-3-{3-oxo-2H,3H,4H-pyrido[3,2-b][1,4]oxazin-6-yl}-octahydro-1,3-benzoxazol-6-yl]amino}ethyl)-7-fluoro-1,2-dihydroquinoxalin-2-one]
[1]
  MIC: < 1 µg/mL
[2]
  MIC: < 1 µg/mL
[3]
  MIC: < 1 µg/mL
E. coli MG1655
  MIC: < 1 µg/mL
[4]
  MIC: 1 to 10 µg/mL (≈ 2.02 to 20.2 µM)
E. coli MG1655 D87G; [10]
  Fold increase in MIC, E. coli MG1655 D87G: 1 fold
[5]
  MIC: < 1 µg/mL
[6]
  MIC: < 1 µg/mL
E. coli MG1655 S83L; [11]
  Fold increase in MIC, E. coli MG1655 S83L: 1 fold
[7]
  MIC: < 1 µg/mL
[8]
  IC50: 10 to 100 µg/mL (≈ 20.2 to 202 µM)
E. coli ATCC BAA-2452
  MIC: < 1 µg/mL
E. coli NCTC 13476
  MIC: < 1 µg/mL

## O=C1COc2ccc(N3C(=O)O[C@H]4C[C@@H](NCCn5c(=O)ccc6ncc(OC(F)F)cc65)CC[C@@H]43)nc2N1 [Compound 98, 1-(2-{[(3aS,6S,7aS)-2-oxo-3-{3-oxo-2H,3H,4H-pyrido[3,2-b][1,4]oxazin-6-yl}-octahydro-1,3-benzoxazol-6-yl]amino}ethyl)-7-(difluoromethoxy)-1,2-dihydro-1,5-naphthyridin-2-one]
[1]
  MIC: < 1 µg/mL
[2]
  MIC: < 1 µg/mL
[3]
  MIC: 1 to 10 µg/mL (≈ 1.84 to 18.4 µM)
E. coli MG1655
  MIC: < 1 µg/mL
[4]
  MIC: 1 to 10 µg/mL (≈ 1.84 to 18.4 µM)
E. coli MG1655 D87G; [10]
  Fold increase in MIC, E. coli MG1655 D87G: 1 fold
[5]
  MIC: < 1 µg/mL
E. coli MG1655 S83L; [11]
  Fold increase in MIC, E. coli MG1655 S83L: 1 fold
[7]
  MIC: < 1 µg/mL
[8]
  IC50: > 100 µg/mL
[9]
  MIC: < 1 µg/mL
E. coli ATCC BAA-2452
  MIC: < 1 µg/mL
E. coli NCTC 13476
  MIC: 1 to 10 µg/mL (≈ 1.84 to 18.4 µM)

## O=C1COc2ccc(N3C(=O)O[C@H]4C[C@@H](NCCn5c(=O)ccc6ccc(OC(F)F)cc65)CC[C@@H]43)nc2N1 [Compound 101, 1-(2-{[(3aS,6S,7aS)-2-oxo-3-{3-oxo-2H,3H,4H-pyrido[3,2-b][1,4]oxazin-6-yl}-octahydro-1,3-benzoxazol-6-yl]amino}ethyl)-7-(difluoromethoxy)-1,2-dihydro quinolin-2-one]
[1]
  MIC: < 1 µg/mL
[2]
  MIC: < 1 µg/mL
[3]
  MIC: 1 to 10 µg/mL (≈ 1.85 to 18.5 µM)
E. coli MG1655
  MIC: < 1 µg/mL
[4]
  MIC: 1 to 10 µg/mL (≈ 1.85 to 18.5 µM)
E. coli MG1655 D87G; [10]
  Fold increase in MIC, E. coli MG1655 D87G: 1 fold
[5]
  MIC: < 1 µg/mL
[6]
  MIC: < 1 µg/mL
E. coli MG1655 S83L; [11]
  Fold increase in MIC, E. coli MG1655 S83L: 1 fold
[8]
  IC50: 10 to 100 µg/mL (≈ 18.5 to 185 µM)
[9]
  MIC: < 1 µg/mL
E. coli ATCC BAA-2452
  MIC: < 1 µg/mL
E. coli NCTC 13476
  MIC: < 1 µg/mL

## N#Cc1cccc(-c2cccc(CN[C@H]3CC[C@H]4[C@H](C3)OC(=O)N4c3ccc4c(n3)NC(=O)CO4)n2)c1 [Compound 105, 3-[6-({[(3aS,6S,7aS)-2-oxo-3-{3-oxo-2H,3H,4H-pyrido[3,2-b][1,4]oxazin-6-yl}-octahydro-1,3-benzoxazol-6-yl]amino}methyl)pyridin-2-yl]benzonitrile]
[1]
  MIC: < 1 µg/mL
[2]
  MIC: < 1 µg/mL
[3]
  MIC: 1 to 10 µg/mL (≈ 2.01 to 20.1 µM)
E. coli MG1655
  MIC: < 1 µg/mL
[4]
  MIC: 1 to 10 µg/mL (≈ 2.01 to 20.1 µM)
E. coli MG1655 D87G; [10]
  Fold increase in MIC, E. coli MG1655 D87G: 1 fold
[5]
  MIC: < 1 µg/mL
E. coli MG1655 S83L; [11]
  Fold increase in MIC, E. coli MG1655 S83L: 1 fold
[7]
  MIC: < 1 µg/mL
[8]
  IC50: 10 to 100 µg/mL (≈ 20.1 to 201 µM)
[9]
  MIC: < 1 µg/mL
E. coli ATCC BAA-2452
  MIC: < 1 µg/mL
E. coli NCTC 13476
  MIC: 1 to 10 µg/mL (≈ 2.01 to 20.1 µM)
